Data on five molecules can be found in the supplement of paper PMC10307832.

One assay relates to PC-14. Nature of the assay: relative viability (nuclei count vs DMSO), 5 days (fraction); higher = more cells survive. The following applies: first compound 2 µM. The gist of the method: (§1)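 Lung cancer cell lines were seeded in 1536-well plates and dosed by pin tool the next day, with either a single drug or a fixed anchor-drug dose combined with five library-drug doses (not always all listed) spaced in √10 steps. Five days later, one step fixed the cells and stained their nuclei (final 0.05% Triton X-100, 1% formaldehyde, 1 ug/ml Hoechst), and nuclei were counted on 4× images. Relative viability is the nuclei count in treated wells divided by the count in vehicle wells, and each value is the median of duplicate plates.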
On to `COCC1(CO)C(=O)C2CCN1CC2` (stereo unspecified) [PRIMA-1MET] + O=C(c1cc(Cc2n[nH]c(=O)c3ccccc23)ccc1F)N1CCN(C(=O)C2CC2)CC1 [Olaparib] (partner 8 µM), for which the relative viability was found to be 0.24.
Consider `COCC1(CO)C(=O)C2CCN1CC2` (stereo unspecified) [PRIMA-1MET] + C[C@@H](Oc1cc(-c2cnn(C3CCNCC3)c2)cnc1N)c1c(Cl)ccc(F)c1Cl [Crizotinib] (partner 1 µM), for which the relative viability was found to be 0.853.

Staying with this assay, now noted: first compound 6.325 µM.
`COCC1(CO)C(=O)C2CCN1CC2` (stereo unspecified) [PRIMA-1MET] + CC(C)C[C@H](NC(=O)[C@H](Cc1ccccc1)NC(=O)c1cnccn1)B(O)O [Bortezomib] (partner 0.002 µM) gave a relative viability of 1.08.
The molecule `COCC1(CO)C(=O)C2CCN1CC2` (stereo unspecified) [PRIMA-1MET] + CC(=O)Nc1cccc(-n2c(=O)n(C3CC3)c(=O)c3c(Nc4ccc(I)cc4F)n(C)c(=O)c(C)c32)c1 [Trametinib] (partner 0.02 µM) returned a relative viability of 0.693.
`COCC1(CO)C(=O)C2CCN1CC2` (stereo unspecified) [PRIMA-1MET] + Nc1ncn([C@H]2C[C@H](O)[C@@H](CO)O2)c(=O)n1 [Decitabine] (partner 2 µM) displayed a relative viability of 0.21.
As for `COCC1(CO)C(=O)C2CCN1CC2` (stereo unspecified) [PRIMA-1MET] + O=C(c1cc(Cc2n[nH]c(=O)c3ccccc23)ccc1F)N1CCN(C(=O)C2CC2)CC1 [Olaparib] (partner 8 µM), the relative viability turned out to be 0.275.
The same measure, in the same setting: to `COCC1(CO)C(=O)C2CCN1CC2` (stereo unspecified) [PRIMA-1MET] + C[C@@H](Oc1cc(-c2cnn(C3CCNCC3)c2)cnc1N)c1c(Cl)ccc(F)c1Cl [Crizotinib] (partner 1 µM) belongs 0.975.

The assay is the same for the next values; noted with them: first compound 20 µM.
Turning to `COCC1(CO)C(=O)C2CCN1CC2` (stereo unspecified) [PRIMA-1MET] + CC(C)C[C@H](NC(=O)[C@H](Cc1ccccc1)NC(=O)c1cnccn1)B(O)O [Bortezomib] (partner 0.002 µM), the relative viability was 0.884.
Still for that read-out and setting: to `COCC1(CO)C(=O)C2CCN1CC2` (stereo unspecified) [PRIMA-1MET] + CC(=O)Nc1cccc(-n2c(=O)n(C3CC3)c(=O)c3c(Nc4ccc(I)cc4F)n(C)c(=O)c(C)c32)c1 [Trametinib] (partner 0.02 µM) belongs 0.615.
Regarding `COCC1(CO)C(=O)C2CCN1CC2` (stereo unspecified) [PRIMA-1MET] + Nc1ncn([C@H]2C[C@H](O)[C@@H](CO)O2)c(=O)n1 [Decitabine] (partner 2 µM), the relative viability was 0.0433.
In turn, `COCC1(CO)C(=O)C2CCN1CC2` (stereo unspecified) [PRIMA-1MET] + O=C(c1cc(Cc2n[nH]c(=O)c3ccccc23)ccc1F)N1CCN(C(=O)C2CC2)CC1 [Olaparib] (partner 8 µM) yielded a relative viability of 0.209.
As for `COCC1(CO)C(=O)C2CCN1CC2` (stereo unspecified) [PRIMA-1MET] + C[C@@H](Oc1cc(-c2cnn(C3CCNCC3)c2)cnc1N)c1c(Cl)ccc(F)c1Cl [Crizotinib] (partner 1 µM), the relative viability is 1.

The test system of a further assay is NCI-H1944. The description is as above. The note with it: first compound 0.2 µM. The gist of the method: as §1
In turn, `COCC1(CO)C(=O)C2CCN1CC2` (stereo unspecified) [PRIMA-1MET] + CC(=O)Nc1cccc(-n2c(=O)n(C3CC3)c(=O)c3c(Nc4ccc(I)cc4F)n(C)c(=O)c(C)c32)c1 [Trametinib] (partner 0.02 µM) came in with a relative viability of 0.366.
Same read-out and setting: the same measure for `COCC1(CO)C(=O)C2CCN1CC2` (stereo unspecified) [PRIMA-1MET] + Nc1ncn([C@H]2C[C@H](O)[C@@H](CO)O2)c(=O)n1 [Decitabine] (partner 2 µM): 0.436; for `COCC1(CO)C(=O)C2CCN1CC2` (stereo unspecified) [PRIMA-1MET] + O=C(c1cc(Cc2n[nH]c(=O)c3ccccc23)ccc1F)N1CCN(C(=O)C2CC2)CC1 [Olaparib] (partner 8 µM): 0.479.
Still for that read-out and setting: the same measure for `COCC1(CO)C(=O)C2CCN1CC2` (stereo unspecified) [PRIMA-1MET] + C[C@@H](Oc1cc(-c2cnn(C3CCNCC3)c2)cnc1N)c1c(Cl)ccc(F)c1Cl [Crizotinib] (partner 1 µM): 1.36.

The same assay, now with this note: first compound 0.6325 µM.
`COCC1(CO)C(=O)C2CCN1CC2` (stereo unspecified) [PRIMA-1MET] + CC(=O)Nc1cccc(-n2c(=O)n(C3CC3)c(=O)c3c(Nc4ccc(I)cc4F)n(C)c(=O)c(C)c32)c1 [Trametinib] (partner 0.02 µM) registered a relative viability of 0.349.
Still for that read-out and setting: to `COCC1(CO)C(=O)C2CCN1CC2` (stereo unspecified) [PRIMA-1MET] + Nc1ncn([C@H]2C[C@H](O)[C@@H](CO)O2)c(=O)n1 [Decitabine] (partner 2 µM) belongs 0.35; to `COCC1(CO)C(=O)C2CCN1CC2` (stereo unspecified) [PRIMA-1MET] + O=C(c1cc(Cc2n[nH]c(=O)c3ccccc23)ccc1F)N1CCN(C(=O)C2CC2)CC1 [Olaparib] (partner 8 µM), 0.393.
`COCC1(CO)C(=O)C2CCN1CC2` (stereo unspecified) [PRIMA-1MET] + C[C@@H](Oc1cc(-c2cnn(C3CCNCC3)c2)cnc1N)c1c(Cl)ccc(F)c1Cl [Crizotinib] (partner 1 µM): the relative viability came out at 0.817.

Still in this assay, the particulars now being: first compound 2 µM.
`COCC1(CO)C(=O)C2CCN1CC2` (stereo unspecified) [PRIMA-1MET] + CC(=O)Nc1cccc(-n2c(=O)n(C3CC3)c(=O)c3c(Nc4ccc(I)cc4F)n(C)c(=O)c(C)c32)c1 [Trametinib] (partner 0.02 µM) displayed a relative viability of 0.407.
The molecule `COCC1(CO)C(=O)C2CCN1CC2` (stereo unspecified) [PRIMA-1MET] + Nc1ncn([C@H]2C[C@H](O)[C@@H](CO)O2)c(=O)n1 [Decitabine] (partner 2 µM) registered a relative viability of 0.408.
Same read-out and setting: to `COCC1(CO)C(=O)C2CCN1CC2` (stereo unspecified) [PRIMA-1MET] + O=C(c1cc(Cc2n[nH]c(=O)c3ccccc23)ccc1F)N1CCN(C(=O)C2CC2)CC1 [Olaparib] (partner 8 µM) belongs 0.415.

Still in this assay, the particulars now being: first compound 6.325 µM.
`COCC1(CO)C(=O)C2CCN1CC2` (stereo unspecified) [PRIMA-1MET] + CC(=O)Nc1cccc(-n2c(=O)n(C3CC3)c(=O)c3c(Nc4ccc(I)cc4F)n(C)c(=O)c(C)c32)c1 [Trametinib] (partner 0.02 µM): the relative viability stood at 0.387.
Molecule `COCC1(CO)C(=O)C2CCN1CC2` (stereo unspecified) [PRIMA-1MET] + Nc1ncn([C@H]2C[C@H](O)[C@@H](CO)O2)c(=O)n1 [Decitabine] (partner 2 µM) came in with a relative viability of 0.431.
Turning to `COCC1(CO)C(=O)C2CCN1CC2` (stereo unspecified) [PRIMA-1MET] + O=C(c1cc(Cc2n[nH]c(=O)c3ccccc23)ccc1F)N1CCN(C(=O)C2CC2)CC1 [Olaparib] (partner 8 µM), the relative viability turned out to be 0.398.
On the same count and under the same terms, the same measure for `COCC1(CO)C(=O)C2CCN1CC2` (stereo unspecified) [PRIMA-1MET] + C[C@@H](Oc1cc(-c2cnn(C3CCNCC3)c2)cnc1N)c1c(Cl)ccc(F)c1Cl [Crizotinib] (partner 1 µM): 1.09.

Still in this assay, the particulars now being: first compound 20 µM.
In the case of `COCC1(CO)C(=O)C2CCN1CC2` (stereo unspecified) [PRIMA-1MET] + CC(=O)Nc1cccc(-n2c(=O)n(C3CC3)c(=O)c3c(Nc4ccc(I)cc4F)n(C)c(=O)c(C)c32)c1 [Trametinib] (partner 0.02 µM), the relative viability is 0.425.
With `COCC1(CO)C(=O)C2CCN1CC2` (stereo unspecified) [PRIMA-1MET] + Nc1ncn([C@H]2C[C@H](O)[C@@H](CO)O2)c(=O)n1 [Decitabine] (partner 2 µM), the relative viability amounted to 0.446.
With `COCC1(CO)C(=O)C2CCN1CC2` (stereo unspecified) [PRIMA-1MET] + O=C(c1cc(Cc2n[nH]c(=O)c3ccccc23)ccc1F)N1CCN(C(=O)C2CC2)CC1 [Olaparib] (partner 8 µM), the relative viability is 0.457.
`COCC1(CO)C(=O)C2CCN1CC2` (stereo unspecified) [PRIMA-1MET] + C[C@@H](Oc1cc(-c2cnn(C3CCNCC3)c2)cnc1N)c1c(Cl)ccc(F)c1Cl [Crizotinib] (partner 1 µM) yielded a relative viability of 1.06.
